Experimental data reported in article PMC2990605 (British Journal of Cancer, 2010).
Entries after “also recorded” stand apart in the source; their conditions may differ.

Assay: Adverse events (CTCAEv3.0), worst grade per patient regardless of relation, and laboratory parameters
Type: in vivo
Procedure: Toxicity was evaluated according to common toxicity criteria for adverse events (CTCAEv3.0). The MTD was defined as the dose level(s) at which at least two out of six patients developed DLT.
Toxicity assessment, haematology and clinical biochemistry were performed at baseline and weekly during the study. Physical and ECOG performance status were recorded at baseline and before the next cycle.

In the case of `CC(C)C[C@@H](C(=O)N[C@H](C(=O)OC1CCCC1)c1ccccc1)[C@H](O)C(=O)NO` [tosedostat], the “Dyspnoea, CTCAE grade 1, patients” value (human, in vivo, 21 days) is reported as 0, the “Eosinophilic myocarditis, CTCAE grade 1, patients” value (human, in vivo, 21 days) is reported as 0 and the “Eosinophilic myocarditis, CTCAE grade 2, patients” value (human, in vivo, 21 days) is reported as 0. The “Eosinophilic myocarditis, CTCAE grade 3, patients” value (human, in vivo, 21 days) was 0, the “Eosinophilic myocarditis, CTCAE grade 4, patients” value (human, in vivo, 21 days) was 0 and the “Eosinophilic myocarditis, patients with events, %” value (human, in vivo, 21 days) was 0%. For the same compound, the “Erythema, CTCAE grade 1, patients” value (human, in vivo, 21 days) was 0, the “Erythema, CTCAE grade 2, patients” value (human, in vivo, 21 days) was 0 and the “Erythema, CTCAE grade 3, patients” value (human, in vivo, 21 days) was 0. The “Erythema, CTCAE grade 4, patients” value (human, in vivo, 21 days) was 0, the “Erythema, patients with events, %” value (human, in vivo, 21 days) was 0% and the “Fatigue, CTCAE grade 1, patients” value (human, in vivo, 21 days) was 7. For the same compound, the “Fatigue, CTCAE grade 2, patients” value (human, in vivo, 21 days) was 2, the “Fatigue, CTCAE grade 3, patients” value (human, in vivo, 21 days) was 1 and the “Fatigue, CTCAE grade 4, patients” value (human, in vivo, 21 days) was 0. For the same compound, the “Fatigue, patients with events, %” value (human, in vivo, 21 days) was 45%, the “Gastric dilatation, CTCAE grade 1, patients” value (human, in vivo, 21 days) was 0 and the “Gastric dilatation, CTCAE grade 2, patients” value (human, in vivo, 21 days) was 0. The “Gastric dilatation, CTCAE grade 3, patients” value (human, in vivo, 21 days) was 1, the “Gastric dilatation, CTCAE grade 4, patients” value (human, in vivo, 21 days) was 0 and the “Gastric dilatation, patients with events, %” value (human, in vivo, 21 days) was 5%. For the same compound, the “General physical health deterioration, CTCAE grade 1, patients” value (human, in vivo, 21 days) was 0, the “General physical health deterioration, CTCAE grade 2, patients” value (human, in vivo, 21 days) was 0 and the “General physical health deterioration, CTCAE grade 3, patients” value (human, in vivo, 21 days) was 0. For the same compound, the “General physical health deterioration, CTCAE grade 4, patients” value (human, in vivo, 21 days) was 0, the “General physical health deterioration, patients with events, %” value (human, in vivo, 21 days) was 0% and the “Hypercalcaemia, CTCAE grade 1, patients” value (human, in vivo, 21 days) was 0. The “Hypercalcaemia, CTCAE grade 2, patients” value (human, in vivo, 21 days) was 0, the “Hypercalcaemia, CTCAE grade 3, patients” value (human, in vivo, 21 days) was 0 and the “Hypercalcaemia, CTCAE grade 4, patients” value (human, in vivo, 21 days) was 0. For the same compound, the “Hypercalcaemia, patients with events, %” value (human, in vivo, 21 days) was 0%, the “Hyperglycaemia, CTCAE grade 1, patients” value (human, in vivo, 21 days) was 0 and the “Hyperglycaemia, CTCAE grade 2, patients” value (human, in vivo, 21 days) was 0. The “Hyperglycaemia, CTCAE grade 3, patients” value (human, in vivo, 21 days) was 2, the “Hyperglycaemia, CTCAE grade 4, patients” value (human, in vivo, 21 days) was 0 and the “Hyperglycaemia, patients with events, %” value (human, in vivo, 21 days) was 9%. The “Hyperhidrosis, CTCAE grade 1, patients” value (human, in vivo, 21 days) was 1, the “Hyperhidrosis, CTCAE grade 2, patients” value (human, in vivo, 21 days) was 0 and the “Hyperhidrosis, CTCAE grade 3, patients” value (human, in vivo, 21 days) was 0. The “Hyperhidrosis, CTCAE grade 4, patients” value (human, in vivo, 21 days) was 0, the “Hyperhidrosis, patients with events, %” value (human, in vivo, 21 days) was 5% and the “Leukopenia, CTCAE grade 1, patients” value (human, in vivo, 21 days) was 0. The “Leukopenia, CTCAE grade 2, patients” value (human, in vivo, 21 days) was 2, the “Leukopenia, CTCAE grade 3, patients” value (human, in vivo, 21 days) was 2 and the “Leukopenia, CTCAE grade 4, patients” value (human, in vivo, 21 days) was 0. The “Leukopenia, patients with events, %” value (human, in vivo, 21 days) was 18%, the “Malaise, CTCAE grade 2, patients” value (human, in vivo, 21 days) was 0 and the “Malaise, CTCAE grade 3, patients” value (human, in vivo, 21 days) was 1. For the same compound, the “Malaise, CTCAE grade 4, patients” value (human, in vivo, 21 days) was 0, the “Malaise, patients with events, %” value (human, in vivo, 21 days) was 5% and the “Mucosal inflammation, CTCAE grade 1, patients” value (human, in vivo, 21 days) was 2. The “Mucosal inflammation, CTCAE grade 2, patients” value (human, in vivo, 21 days) was 1, the “Mucosal inflammation, CTCAE grade 3, patients” value (human, in vivo, 21 days) was 0 and the “Mucosal inflammation, CTCAE grade 4, patients” value (human, in vivo, 21 days) was 0. The “Mucosal inflammation, patients with events, %” value (human, in vivo, 21 days) was 14%, the “Myalgia, CTCAE grade 1, patients” value (human, in vivo, 21 days) was 7 and the “Myalgia, CTCAE grade 2, patients” value (human, in vivo, 21 days) was 1. The “Myalgia, CTCAE grade 3, patients” value (human, in vivo, 21 days) was 1, the “Myalgia, CTCAE grade 4, patients” value (human, in vivo, 21 days) was 0 and the “Myalgia, patients with events, %” value (human, in vivo, 21 days) was 41%. The “Nasopharyngitis, CTCAE grade 1, patients” value (human, in vivo, 21 days) was 2, the “Nasopharyngitis, CTCAE grade 2, patients” value (human, in vivo, 21 days) was 0 and the “Nasopharyngitis, CTCAE grade 3, patients” value (human, in vivo, 21 days) was 0. The “Nasopharyngitis, CTCAE grade 4, patients” value (human, in vivo, 21 days) was 0, the “Nasopharyngitis, patients with events, %” value (human, in vivo, 21 days) was 9% and the “Nausea, CTCAE grade 1, patients” value (human, in vivo, 21 days) was 4. The “Nausea, CTCAE grade 2, patients” value (human, in vivo, 21 days) was 1, the “Nausea, CTCAE grade 3, patients” value (human, in vivo, 21 days) was 0 and the “Nausea, CTCAE grade 4, patients” value (human, in vivo, 21 days) was 0. The “Nausea, patients with events, %” value (human, in vivo, 21 days) was 23%, the “Neutropenia, CTCAE grade 1, patients” value (human, in vivo, 21 days) was 0 and the “Neutropenia, CTCAE grade 2, patients” value (human, in vivo, 21 days) was 1. For the same compound, the “Neutropenia, CTCAE grade 3, patients” value (human, in vivo, 21 days) was 2, the “Neutropenia, CTCAE grade 4, patients” value (human, in vivo, 21 days) was 3 and the “Neutropenia, patients with events, %” value (human, in vivo, 21 days) was 27%. The “Oedema peripheral, CTCAE grade 1, patients” value (human, in vivo, 21 days) was 4, the “Oedema peripheral, CTCAE grade 2, patients” value (human, in vivo, 21 days) was 1 and the “Oedema peripheral, CTCAE grade 3, patients” value (human, in vivo, 21 days) was 0. For the same compound, the “Oedema peripheral, CTCAE grade 4, patients” value (human, in vivo, 21 days) was 0, the “Oedema peripheral, patients with events, %” value (human, in vivo, 21 days) was 23% and the “Oedema, CTCAE grade 1, patients” value (human, in vivo, 21 days) was 3. For the same compound, the “Oedema, CTCAE grade 2, patients” value (human, in vivo, 21 days) was 0, the “Oedema, CTCAE grade 3, patients” value (human, in vivo, 21 days) was 0 and the “Oedema, CTCAE grade 4, patients” value (human, in vivo, 21 days) was 0. The “Oedema, patients with events, %” value (human, in vivo, 21 days) was 14%, the “Peripheral sensory neuropathy, CTCAE grade 1, patients” value (human, in vivo, 21 days) was 4 and the “Peripheral sensory neuropathy, CTCAE grade 2, patients” value (human, in vivo, 21 days) was 3. For the same compound, the “Peripheral sensory neuropathy, CTCAE grade 3, patients” value (human, in vivo, 21 days) was 0, the “Peripheral sensory neuropathy, CTCAE grade 4, patients” value (human, in vivo, 21 days) was 0 and the “Peripheral sensory neuropathy, patients with events, %” value (human, in vivo, 21 days) was 32%. The “Pollakiuria, CTCAE grade 1, patients” value (human, in vivo, 21 days) was 0, the “Pollakiuria, CTCAE grade 2, patients” value (human, in vivo, 21 days) was 0 and the “Pollakiuria, CTCAE grade 3, patients” value (human, in vivo, 21 days) was 0. For the same compound, the “Pollakiuria, CTCAE grade 4, patients” value (human, in vivo, 21 days) was 0, the “Pollakiuria, patients with events, %” value (human, in vivo, 21 days) was 0% and the “Pruritus, CTCAE grade 1, patients” value (human, in vivo, 21 days) was 3. For the same compound, the “Pruritus, CTCAE grade 2, patients” value (human, in vivo, 21 days) was 0, the “Pruritus, CTCAE grade 3, patients” value (human, in vivo, 21 days) was 1 and the “Pruritus, CTCAE grade 4, patients” value (human, in vivo, 21 days) was 0. The “Pruritus, patients with events, %” value (human, in vivo, 21 days) was 18%, the “Pyrexia, CTCAE grade 1, patients” value (human, in vivo, 21 days) was 1 and the “Pyrexia, CTCAE grade 2, patients” value (human, in vivo, 21 days) was 1. For the same compound, the “Pyrexia, CTCAE grade 3, patients” value (human, in vivo, 21 days) was 0, the “Pyrexia, CTCAE grade 4, patients” value (human, in vivo, 21 days) was 0 and the “Pyrexia, patients with events, %” value (human, in vivo, 21 days) was 9%. The “Rash, CTCAE grade 1, patients” value (human, in vivo, 21 days) was 3, the “Rash, CTCAE grade 2, patients” value (human, in vivo, 21 days) was 1 and the “Rash, CTCAE grade 3, patients” value (human, in vivo, 21 days) was 1. The “Rash, CTCAE grade 4, patients” value (human, in vivo, 21 days) was 0, the “Rash, patients with events, %” value (human, in vivo, 21 days) was 23% and the “Spinal cord compression, CTCAE grade 1, patients” value (human, in vivo, 21 days) was 0. The “Spinal cord compression, CTCAE grade 2, patients” value (human, in vivo, 21 days) was 0, the “Spinal cord compression, CTCAE grade 3, patients” value (human, in vivo, 21 days) was 0 and the “Spinal cord compression, CTCAE grade 4, patients” value (human, in vivo, 21 days) was 0. For the same compound, the “Spinal cord compression, patients with events, %” value (human, in vivo, 21 days) was 0%, the “Tumour pain, CTCAE grade 1, patients” value (human, in vivo, 21 days) was 0 and the “Tumour pain, CTCAE grade 2, patients” value (human, in vivo, 21 days) was 0. For the same compound, the “Tumour pain, CTCAE grade 3, patients” value (human, in vivo, 21 days) was 1, the “Tumour pain, CTCAE grade 4, patients” value (human, in vivo, 21 days) was 0 and the “Tumour pain, patients with events, %” value (human, in vivo, 21 days) was 5%. For the same compound, the “Urinary tract infection, CTCAE grade 1, patients” value (human, in vivo, 21 days) was 0, the “Urinary tract infection, CTCAE grade 2, patients” value (human, in vivo, 21 days) was 0 and the “Urinary tract infection, CTCAE grade 3, patients” value (human, in vivo, 21 days) was 1. For the same compound, the “Urinary tract infection, CTCAE grade 4, patients” value (human, in vivo, 21 days) was 0, the “Urinary tract infection, patients with events, %” value (human, in vivo, 21 days) was 5% and the “Vomiting, CTCAE grade 1, patients” value (human, in vivo, 21 days) was 3. The “Vomiting, CTCAE grade 2, patients” value (human, in vivo, 21 days) was 1, the “Vomiting, CTCAE grade 3, patients” value (human, in vivo, 21 days) was 0 and the “Vomiting, CTCAE grade 4, patients” value (human, in vivo, 21 days) was 0. The “Vomiting, patients with events, %” value (human, in vivo, 21 days) was 18%, the “γ-glutamyltransferase increased, CTCAE grade 1, patients” value (human, in vivo, 21 days) was 0 and the “γ-glutamyltransferase increased, CTCAE grade 2, patients” value (human, in vivo, 21 days) was 0. The “γ-glutamyltransferase increased, CTCAE grade 3, patients” value (human, in vivo, 21 days) was 1, the “γ-glutamyltransferase increased, CTCAE grade 4, patients” value (human, in vivo, 21 days) was 0 and the “γ-glutamyltransferase increased, patients with events, %” value (human, in vivo, 21 days) was 5%. For the same compound, the “death on study, cause” value (one patient, cohort 5, 6 days after third paclitaxel infusion, 2 days after last tosedostat dose) was “eosinophilic myocarditis, possibly related to study medication; also recorded: eosinophilic myocarditis, considered possibly related to paclitaxel, tosedostat or other medications”.
